According to patent US11998600B2, “Enhancing the therapeutic activity of an immune checkpoint inhibitor” (MaineHealth, priority 2015, dated 2024):

Assays:
[1] = tested on: endothelial cells transduced with non-specific shRNA; experiment: Cell proliferation assay, endothelial cells transduced with non-specific shRNA; assay type: cell-based, human; conditions: soluble peptide; FIG. 8G
Description: (§1) HUVECs (WT, shYAP1 or control transfected) or HRMVECs were plated at 2,000 cells per well with complete EGM-2 media containing 2.0% FBS in the absence or presence of P-1, P-2 or P-C (100 ng/ml) and allowed to grow for 24 hours. Cell growth was monitored using a BrdU or MMT assay kits according to manufacturer's instructions. All assays were completed at least three times in triplicate wells.
(§2) Raw cells were transfected with 1 μg of HuSH shRNA plasmids for collagen type I, alpha 2 using Amaxa cell line nucleofector kit V (program #T024). Constructs expressing 21-nucleotide short hairpin RNAs (shRNA) targeting human YAP (shYAP) or non-targeting control (shNT, Sigma-Aldrich, SHC002) were used. Humantargeting shYAP1 lentiviral shRNA was obtained from the Thermo Scientific RNAi consortium (TRCN0000107625). Constructs were packaged into lentivirus, pseudotyped with the vesicular stomatitis virus glycoprotein. Transduction was performed by incubating cells with lentivirus, and stably transduced cells were subsequently used for studies. All cell lines were verified by morphology and mouse and human YAP-specific PCR. […] Endothelial cells were certified mycoplasma-negative by PCR (Lonza), and primary cell cultures were used within the indicated passage numbers. Cells were transduced and selected using puromycin.
(§3) Endothelial cells with YAP specific or non-specific shRNAs were transduced.

[2] = tested on: endothelial cells in which YAP was knocked down; experiment: Cell proliferation assay, endothelial cells transduced with YAP specific shRNA; assay type: cell-based, human; conditions: soluble peptide (FIG. 8H) or VEGF 50 ng/ml (FIG. 8I)
Description: as §1, §2, §3

[3] = tested on: chick chorioallantoic membrane (CAM); experiment: Chick CAM inflammation assay, induction by RGD collagen peptides; assay type: in vivo; conditions: chick CAM, no cortisone acetate; FIG. 5D
Description: (§4) The chick chorioallantoic membrane (CAM) assays were carried out with some modifications (19). For all experiments CAMs of 10-day-old chick embryos obtained from Charles River (North Franklin, CT) were separated from the shell membrane. Filter discs either non-treated (inflammation assays) pretreated (angiogenesis assays) with cortisone acetate (3.0 mg/ml) containing RPMI only or FGF-2 (40 ng). CAMs were either non-treated or treated topically with Mab XL313, XL166 or a non-specific control antibody (10 μg/embryo every 24 h for three consecutive treatments). […] At the end of the incubation period the embryos were sacrificed and the CAM tissues were analyzed. Angiogenesis was quantified by counting the number of angiogenic branching blood vessels within the area of the filter disc. The angiogenic index was determined by subtracting the mean number of blood vessel branch points from untreated CAMs from each experimental condition. Eight to twelve embryos were used per condition and experiments were repeated at least three times.
The effects of the soluble RGD containing collagen peptides on inflammation were examined.

P38MAPK = experiment: Phosphorylated P38MAPK in CAM tissue lysates, Western blot; assay type: in vivo, chick; conditions: Image-J quantification, FIG. 6B
Description: as §4
Whole cell and CAM tissue lysates were collected in RIPA buffer supplemented with 1× protease inhibitor and 1× phosphatase inhibitor and were run on polyacrylamide gels using denaturing conditions. […] Western blot bands were quantified using Image J software based on pixel intensity.

HUVEC = experiment: Cell proliferation assay, HUVEC; assay type: cell-based, human; conditions: peptide 100 ng/ml, 24 hours; FIG. 8C
Description: as §1

Fak = Fak phosphorylation in endothelial cells attached to collagen peptides; assay type: cell-based, human; conditions: serum free conditions
Description: Whole cell and CAM tissue lysates were collected in RIPA buffer supplemented with 1× protease inhibitor and 1× phosphatase inhibitor and were run on polyacrylamide gels using denaturing conditions. Prior to loading the gels, 6× sample buffer was added to each of the lysates (final concentration 1×) and boiled for five minutes. Twenty to 50 μg of total protein were loaded into each lane. For detection of proteins larger than 50 kD, 10% gels were used; for proteins smaller than 50 kD 15% gels were used. Gels were run at 60 volts (v) until the dye front passed through the stacking gel, and then the voltage was increased to 100V for the remainder of the separation. Precision Plus protein standards (Bio-Rad) were used to visualize migration. […] Western blot bands were quantified using Image J software based on pixel intensity.
Because both RGD containing peptides bind αvβ3 coupled with the differential effect of these peptides on angiogenesis and inflammation, it was determined whether the RGD peptides differentially altered αvβ3-mediated signaling. […] Therefore, the differential phosphorylation of these protein kinases following the early mechanical-mediated interactions with the RGD containing collagen peptides was assessed. […]

In the case of QGPRGDKGE [Mab P-2], the “endothelial cell growth in control transduced cells” value [1] was “enhanced growth”, the “endothelial cell growth in YAP knock down cells” value [2] was “failed to induce growth” and the “CAM inflammation following stimulation with peptide” value [3] was “significantly (P<0.05) induced inflammation to nearly that of FGF-2 stimulation”. For the same sequence, the “increase in phosphorylation of P38MAPK as compared to controls” value (P38MAPK) was 4 fold, the “HUVEC growth with soluble peptide” value (HUVEC) was “significantly (P<0.05) enhanced endothelial cell growth” and the “Fak phosphorylation following ligation of peptide” value (Fak) was “Minimal Fak phosphorylation”.
